Measurements from patent US20260022143A1, “Cyclic Peptide Inhibitors of IL-23” (JANSSEN PHARMACEUTICA NV, priority 2022, published 2026).
Starred links: 1 amine or outer side, 2 acyl side, 3 side chain; linkers in the order of their positions; H or OH if unused. Positions of bridges follow the written chain, without caps; N, C: chain ends. Non-standard residues stand in square brackets, D forms with d. Residues, ends and D or L forms follow the SMILES beside them. Groups on a side chain read outwards from the residue. *: point of attachment. Trp(7-(3-AcNH-Ph)) = CC(=O)Nc1cccc(-c2cccc3c(C[C@H](N)C(=O)O)c[nH]c23)c1; X16 = C[N+](C)(C)Cc1cn(-c2ccc(C[C@H](N[*:1])C(=O)[*:2])cc2)nn1; Me3N+(CH2)2O(CH2)2O(CH2)2CO = C[N+](C)(C)CCOCCOCCC(=O)*; Trp(7-Me) = Cc1cccc2c(C[C@H](N)C(=O)O)c[nH]c12; Hexanoyl(6-NMe3+) = C[N+](C)(C)CCCCCC(=O)*; γGlu = O=C(O)[C@H](CCC(=O)[*:2])N[*:1]; 2Nal = N[C@@H](Cc1ccc2ccccc2c1)C(=O)O; AEF = NCCOc1ccc(C[C@H](N)C(=O)O)cc1; X65 = COCCOCCC[N+](C)(CCCOCCOC)CC*; 3Pal = N[C@@H](Cc1cccnc1)C(=O)O; N(CH2CH2)2CF2 = FC1(F)CCN(*)CC1; Lys(Me) = CNCCCC[C@H](N)C(=O)O; NMeK = CN[C@@H](CCCCN)C(=O)O; Pen = CC(C)(S)[C@H](N)C(=O)O; Lauroyl = CCCCCCCCCCCC(=O)*; Thp = NC1(C(=O)O)CCOCC1; X3 = C[N+](C)(C)CCCCC*; AEEA = NCCOCCOCC(=O)O; Me2NCH2CH2 = CN(C)CC*; Sar = CNCC(=O)O

What was measured:
[1] = Exposed Polar Surface Area (EPSA); type: physicochemical; details: SFC on Chirex 3014 column; sample 1 mM DMSO stock; read-out: EPSA
How it was run: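 Polarity descriptor in Å² derived from retention time using 8 calibration standards re-run every 20 compounds. Duplicate injections of 1 mM DMSO stock; linear 5–60% modifier gradient (20 mM ammonium formate in MeOH) with CO2 at 4 mL/min, 35 °C, on a Chirex 3014 column.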

[2] = target: T1, IL-23R (Homo sapiens, UniProt Q5VWK5); experiment: IL23R Reporter Assay; type: cell-based; details: HEK293 cells containing IL-23R, IL-12RP1 and STAT-inducible firefly luciferase reporter; 10 ng/mL IL-23 (EC90); 5 h at 37° C.; read-out: IL23R Reporter Assay
T1 construct: host or cells: HEK293
T1 sequence (Q5VWK5 24-629): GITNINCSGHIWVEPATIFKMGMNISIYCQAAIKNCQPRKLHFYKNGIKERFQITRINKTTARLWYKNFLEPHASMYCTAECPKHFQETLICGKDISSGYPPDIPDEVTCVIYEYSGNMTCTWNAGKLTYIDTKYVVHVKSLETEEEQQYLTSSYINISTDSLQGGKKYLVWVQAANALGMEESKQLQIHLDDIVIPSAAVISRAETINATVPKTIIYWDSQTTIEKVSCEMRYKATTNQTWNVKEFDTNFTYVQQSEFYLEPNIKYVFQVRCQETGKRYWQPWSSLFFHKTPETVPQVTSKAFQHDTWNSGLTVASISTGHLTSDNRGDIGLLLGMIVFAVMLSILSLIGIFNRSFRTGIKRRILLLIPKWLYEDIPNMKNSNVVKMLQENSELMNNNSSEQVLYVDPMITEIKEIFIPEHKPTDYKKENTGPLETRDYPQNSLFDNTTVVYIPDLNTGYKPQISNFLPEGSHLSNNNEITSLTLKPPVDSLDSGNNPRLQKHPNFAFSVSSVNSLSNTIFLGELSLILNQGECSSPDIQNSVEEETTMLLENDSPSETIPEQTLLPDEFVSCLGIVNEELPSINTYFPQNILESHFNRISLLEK

Row | Compound | EPSA [1] [A^2] | IC50 [2] [nM]
1 | CCCCCCCCCCCC(=O)N[C@@H](CCC(=O)NCCOCCOCC(=O)NCCOCCOCC(=O)NCCCC[C@H](NC(=O)C1(NC(=O)[C@H](Cc2ccc3ccccc3c2)NC(=O)[C@H](Cc2ccc(OCCCCC[N+](C)(C)C)cc2)NC(=O)[C@H]2NC(=O)[C@H](CCCCNC(C)=O)NC(=O)[C@H](Cc3c[nH]c4c(C)cccc34)NC(=O)[C@H]([C@@H](C)O)NC(=O)[C@H](CC(N)=O)NC(=O)[C@@H](NC(=O)CCOCCOCC[N+](C)(C)C)C(C)(C)SSC2(C)C)CCOCC1)C(=O)N[C@@H](CC(N)=O)C(=O)N[C@@H](Cc1cccnc1)C(=O)N(C)[C@@H](CCCCNC(=O)COCCOCCNC(=O)COCCOCCNC(=O)CC[C@H](NC(=O)CCCCCCCCCCC)C(=O)O)C(N)=O)C(=O)O [compound 349, cPEG3aCO-Pen(3)-N-T-7MeW-K(Ac)-Pen(3)-TMAPF-2Nal-THP-K(PEG2PEG2gEC12)-N-3Pya-NMeK(PEG2PEG2gEC12)-CONH2] ({Me3N+(CH2)2O(CH2)2O(CH2)2CO}-[Pen]NT[Trp(7-Me)]K(Ac)[Pen]Y(X3)[2Nal][Thp]K([AEEA-AEEA-γGlu-Lauroyl])N[3Pal][NMeK]([AEEA-AEEA-γGlu-Lauroyl])-NH2; disulfide 1-6) | 179 | 220
2 | CC(=O)NCCCC[C@@H]1NC(=O)[C@H](Cc2c[nH]c3c(-c4cccc(NC(C)=O)c4)cccc23)NC(=O)[C@H]([C@@H](C)O)NC(=O)[C@H](CC(N)=O)NC(=O)[C@@H](NC(=O)CCOCCOCC[N+](C)(C)C)C(C)(C)SSC(C)(C)[C@@H](C(=O)N[C@@H](Cc2ccc(OCCN)cc2)C(=O)N[C@@H](Cc2ccc3ccccc3c2)C(=O)NC2(C(=O)N[C@@H](CCC(=O)O)C(=O)N[C@@H](CC(N)=O)C(=O)N[C@@H](Cc3cccnc3)C(=O)N(C)CC(N)=O)CCOCC2)NC1=O [compound 443, cPEG3aCO-Pen(3)-N-T-7(3NAcPh)W-K(Ac)-Pen(3)-AEF-2Nal-THP-E-N-3Pya-Sar-CONH2] ({Me3N+(CH2)2O(CH2)2O(CH2)2CO}-[Pen]NT[Trp(7-(3-AcNH-Ph))]K(Ac)[Pen][AEF][2Nal][Thp]EN[3Pal][Sar]-NH2; disulfide 1-6) | 191 | 2.1
3 | CC(=O)NCCCC[C@@H]1NC(=O)[C@H](Cc2c[nH]c3c(C)cccc23)NC(=O)[C@H]([C@@H](C)O)NC(=O)[C@H](CC(N)=O)NC(=O)[C@@H](NC(C)=O)C(C)(C)SSC(C)(C)[C@@H](C(=O)N[C@@H](Cc2ccc(-n3cc(C[N+](C)(C)C)nn3)cc2)C(=O)N[C@@H](Cc2ccc3ccccc3c2)C(=O)NC2(C(=O)N[C@@H](CCCCNC(C)=O)C(=O)N[C@@H](CC(N)=O)C(=O)N[C@@H](Cc3cccnc3)C(=O)N(C)CC(N)=O)CCOCC2)NC1=O [compound 426] (Ac-[Pen]NT[Trp(7-Me)]K(Ac)[Pen][X16][2Nal][Thp]K(Ac)N[3Pal][Sar]-NH2; disulfide 1-6 (inferred)) | 163 | 1.6
4 | CC(=O)NCCCC[C@@H]1NC(=O)[C@H](Cc2c[nH]c3c(C)cccc23)NC(=O)[C@H]([C@@H](C)O)NC(=O)[C@H](CC(N)=O)NC(=O)[C@@H](NC(C)=O)C(C)(C)SSC(C)(C)[C@@H](C(=O)N[C@@H](Cc2ccc(OCCN)cc2)C(=O)N[C@@H](Cc2ccc3ccccc3c2)C(=O)NC2(C(=O)N[C@@H](CCC(=O)O)C(=O)N[C@@H](CC(N)=O)C(=O)N[C@@H](Cc3cccnc3)C(=O)N(C)CC(=O)N3CCC(F)(F)CC3)CCOCC2)NC1=O [compound 136] (Ac-[Pen]NT[Trp(7-Me)]K(Ac)[Pen][AEF][2Nal][Thp]EN[3Pal][Sar]-{N(CH2CH2)2CF2}; disulfide 1-6 (inferred)) | 169 | 2.6
5 | COCCOCCC[N+](C)(CCCOCCOC)CCOc1ccc(C[C@H](NC(=O)[C@H]2NC(=O)[C@H](CCCCN(C)C(C)=O)NC(=O)[C@H](Cc3c[nH]c4c(C)cccc34)NC(=O)[C@H]([C@@H](C)O)NC(=O)[C@H](CC(=O)N(C)C)NC(=O)[C@@H](NC(=O)CCOCCOCC[N+](C)(C)C)C(C)(C)SSC2(C)C)C(=O)N[C@@H](Cc2ccc3ccccc3c2)C(=O)NC2(C(=O)N[C@@H](CCCCN(C)C(C)=O)C(=O)N[C@@H](CC(N)=O)C(=O)N[C@@H](Cc3cccnc3)C(=O)N(C)CC(=O)N(C)C)CCOCC2)cc1 [compound 221, cPEG3aCO-Pen(3)-N(N(Me)2)-T-7MeW-K(NMeAc)-Pen(3)-AEF(BisMEPa)-2Nal-THP-K(NMeAc)-N-3Pya-Sar-CON(Me)2Â] ({Me3N+(CH2)2O(CH2)2O(CH2)2CO}-[Pen]D(NMe2)T[Trp(7-Me)][Lys(Me)](Ac)[Pen]Y(X65)[2Nal][Thp][Lys(Me)](Ac)N[3Pal][Sar]-NMe2; disulfide 1-6) | 134 | 1.8
6 | Cc1cccc2c(C[C@@H]3NC(=O)[C@H]([C@@H](C)O)NC(=O)[C@H](CC(=O)N(C)C)NC(=O)[C@@H](NC(=O)CCCCC[N+](C)(C)C)C(C)(C)SSC(C)(C)[C@@H](C(=O)N[C@@H](Cc4ccc(OCCN(C)C)cc4)C(=O)N[C@@H](Cc4ccc5ccccc5c4)C(=O)NC4(C(=O)N[C@@H](CCC(=O)O)C(=O)N[C@@H](CC(N)=O)C(=O)N[C@@H](Cc5cccnc5)C(=O)N(C)CC(=O)N(C)C)CCOCC4)NC(=O)[C@H](CCC(=O)N(C)C)NC3=O)c[nH]c12 [compound 97, 5cpaCO-Pen(3)-N(N(Me)2)-T-7MeW-Q(N(Me)2)-Pen(3)-AEF(N(Me)2)-2Nal-THP-E-N-3Pya-Sar-CON(Me)2] ({Hexanoyl(6-NMe3+)}-[Pen]D(NMe2)T[Trp(7-Me)]E(NMe2)[Pen]Y(Me2NCH2CH2)[2Nal][Thp]EN[3Pal][Sar]-NMe2; disulfide 1-6) | 152 | 5.8
7 | CC(=O)N(C)CCCC[C@@H]1NC(=O)[C@H](Cc2c[nH]c3c(C)cccc23)NC(=O)[C@H](C)NC(=O)[C@H](CC(=O)N(C)C)NC(=O)[C@@H](NC(=O)CCOCCOCC[N+](C)(C)C)C(C)(C)SSC(C)(C)[C@@H](C(=O)N[C@@H](Cc2ccc(OCCCCC[N+](C)(C)C)cc2)C(=O)N[C@@H](Cc2ccc3ccccc3c2)C(=O)NC2(C(=O)N[C@@H](CCCCN(C)C(C)=O)C(=O)N[C@@H](CC(N)=O)C(=O)N[C@@H](Cc3cccnc3)C(=O)N(C)CC(=O)N(C)C)CCOCC2)NC1=O [compound 494, cPEG3aCO-Pen(3)-N(N(Me)2)-A-7MeW-K(NMeAc)-Pen(3)-TMAPF-2Nal-THP-K(NMeAc)-N-3Pya-Sar-CON(Me)2] ({Me3N+(CH2)2O(CH2)2O(CH2)2CO}-[Pen]D(NMe2)A[Trp(7-Me)][Lys(Me)](Ac)[Pen]Y(X3)[2Nal][Thp][Lys(Me)](Ac)N[3Pal][Sar]-NMe2; disulfide 1-6) | 133 | 12
8 | CC(=O)NCCCC[C@@H]1NC(=O)[C@H](Cc2c[nH]c3c(-c4cccc(NC(C)=O)c4)cccc23)NC(=O)[C@H]([C@@H](C)O)NC(=O)[C@H](CC(N)=O)NC(=O)[C@@H](NC(C)=O)C(C)(C)SSC(C)(C)[C@@H](C(=O)N[C@@H](Cc2ccc(OCCCCC[N+](C)(C)C)cc2)C(=O)N[C@@H](Cc2ccc3ccccc3c2)C(=O)NC2(C(=O)N[C@@H](CCC(=O)O)C(=O)N[C@@H](CC(N)=O)C(=O)N[C@@H](Cc3cccnc3)C(=O)N(C)CC(N)=O)CCOCC2)NC1=O [compound 451, MeCO-Pen(3)-N-T-7(3NAcPh)W-K(Ac)-Pen(3)-TMAPF-2Nal-THP-E-N-3Pya-Sar-CONH2] (Ac-[Pen]NT[Trp(7-(3-AcNH-Ph))]K(Ac)[Pen]Y(X3)[2Nal][Thp]EN[3Pal][Sar]-NH2; disulfide 1-6) | 172 | 1.5
9 | CC(=O)NC(COCCOCC[N+](C)(C)C)C(=O)N[C@@H]1C(=O)N[C@@H](CC(=O)N(C)C)C(=O)N[C@@H]([C@@H](C)O)C(=O)N[C@@H](Cc2c[nH]c3c(C)cccc23)C(=O)N[C@@H](CCCCN(C)C(C)=O)C(=O)N[C@H](C(=O)N[C@@H](Cc2ccc(OCCn3cc(CCCC[N+](C)(C)C)nn3)cc2)C(=O)N[C@@H](Cc2ccc3ccccc3c2)C(=O)NC2(C(=O)N[C@@H](CCCCN(C)C(C)=O)C(=O)N[C@@H](CC(N)=O)C(=O)N[C@@H](Cc3cccnc3)C(=O)N(C)CC(=O)N(C)C)CCOCC2)C(C)(C)SSC1(C)C (mixture of isomers) [compound 545, MeCO-APEG2Ser(RS)-Pen(3)-N(N(Me)2)-T-7MeW-K(NMeAc)-Pen(3)-Y(OTzlTMA4)-2Nal-THP-K(NMeAc)-N-3Pya-Sar-CON(Me)2] | 154 | 0.83
10 | CC(=O)NCCCC[C@@H]1NC(=O)[C@H](Cc2c[nH]c3c(C)cccc23)NC(=O)[C@H]([C@@H](C)O)NC(=O)[C@H](CC(N)=O)NC(=O)[C@@H](NC(C)=O)C(C)(C)SSC(C)(C)[C@@H](C(=O)N[C@@H](Cc2ccc(OCCCCC[N+](C)(C)C)cc2)C(=O)N[C@@H](Cc2ccc3ccccc3c2)C(=O)NC2(C(=O)N[C@@H](CCCCNC(=O)COc3ccc(-c4ccc(F)cc4F)cc3C(=O)O)C(=O)N[C@@H](CC(N)=O)C(=O)N[C@@H](Cc3cccnc3)C(=O)N(C)CC(N)=O)CCOCC2)NC1=O [compound 526, MeCO-Pen(3)-N-T-7MeW-K(Ac)-Pen(3)-TMAPF-2Nal-THP-K(DFN)-N-3Pya-Sar-CONH2] | 184 | 6.1
